Here are results for 1 compound from patent publication US20240226049A1, “METHODS OF TREATMENT USING BEMPEDOIC ACID” (Esperion Therapeutics, Inc., priority 2023, published 2024).

The subject of this assay is statin-intolerant patients with or at high risk of CVD. As to the kind of experiment: CLEAR OUTCOMES trial (Example 1): effect on LDL-cholesterol, hsCRP, other lipids and glycaemic biomarkers. In kind it is in vivo, human. The text has this:
The CLEAR OUTCOMES trial was a randomized, placebo-controlled, double-blind trial that enrolled patients at 1250 sites in 32 countries. An independent Data Monitoring Committee reviewed safety and efficacy data during the trial.
Patients 18 to 85 years of age were eligible for enrollment if they met either of two criteria for increased cardiovascular risk, a prior cardiovascular event (secondary prevention) or clinical features that placed them at high risk for a cardiovascular event (primary prevention). (Nicholls S. Lincoff A M, Bays H E, et al. Rationale and design of the CLEAR-outcomes trial: Evaluating the effect of bempedoic acid on cardiovascular events in patients with statin intolerance. Am Heart J. 2021 May; 235:104-112) All patients provided written informed consent. Patients had to report statin intolerance due to an adverse effect that started or increased during statin therapy and resolved or improved after statin therapy was discontinued. Patients could be enrolled if they tolerated a very low average daily statin dose (e.g., an average daily dose of rosuvastatin <5 mg, atorvastatin <10 mg, simvastatin <10 mg, lovastatin <20 mg, pravastatin <40 mg, fluvastatin <40 mg, or pitavastatin <2 mg). Other lipid-lowering therapies were permitted, including ezetimibe, niacin, bile acid resins, fibrates, and/or proprotein convertase subtilisin kexin type 9 (PCSK9) inhibitors. Full inclusion and exclusion criteria are provided in Nicholls et al. (Am Heart J. 2021).
Eligible patients entered a 4-week run-in period during which patients were treated with single-blind placebo. If patients were intolerant to placebo treatment or if adherence was <80% by tablet count, they were not eligible for randomization. Patients who successfully completed the run-in period were randomly assigned in a 1:1 ratio to receive bempedoic acid at an oral dose of 180 mg or matching placebo, administered daily. Beginning 6 months after enrollment, the central laboratory notified the investigator if the patient's LDL-cholesterol level was ≥25% higher than baseline. These patients were counseled on healthy dietary guidelines and reminded to take all lipid-regulating medications. If repeat testing confirmed that LDL-cholesterol value met the threshold criteria, the provider could adjust the lipid-lowering treatment regimen per standard of care and local guidelines.
This was an event-driven trial designed to provide at least 90% power to detect a 15% relative risk reduction for the primary composite end point at an overall two-sided significance level of 0.05. The trial required a minimum of 1620 primary composite events with ≥24 months of follow-up for all patients and at least 810 first key secondary end points. The average treatment duration was estimated to be 42 months and a lost-to-follow-up rate of 1% per year. Assuming a 3.59% annual event rate in the placebo group, enrollment of 12,600 patients was required, subsequently amended to 14,000. There were no interim efficacy analyses. A hierarchical approach was prespecified to evaluate sequentially each of the six key secondary efficacy end points with statistical significance at each step required to test the next hypothesis, thereby preserving the study-wise Type I error rate at 5%. All analyses were based on the intent-to-treat principle. The primary efficacy end point was analyzed using Cox proportional hazards model with treatment as a factor to generate the hazard ratio (HR) and 95% confidence interval (CI). The p-value was obtained from a log-rank test.

[1] abbreviates: baseline mean 139.0 mg/dL, full population.

Molecules are shown by their SMILES.

As to `CC(C)(CCCCCC(O)CCCCCC(C)(C)C(=O)O)C(=O)O` [Bempedoic Acid, Bempedoic acid], under setting [1], the “placebo-subtracted reduction in LDL-cholesterol after 6 months of treatment” value was 29.2 mg/dL and the “placebo-subtracted reduction in LDL-cholesterol after 6 months of treatment, percent” value is 21.1%. Further, the “Change from baseline to month 12 in HbA1C in patients with inadequately controlled type 2 diabetes mellitus, Difference” value (bempedoic acid vs placebo) is −0.03%. Further, for the setting “observed mean ± SD”, the “Change from baseline to Month 6 in HbA1c (%), All patients” value is recorded as −0.003 ± 0.6^ %; the “Change from baseline to Month 6 in HbA1c (%), Inadequately Controlled Diabetes at Baseline” value is listed as −0.20 ± 1.0%; the “Change from baseline to Month 12 in HbA1c (%), All patients” value is 0.04 ± 0.74%; the “Change from baseline to Month 12 in HbA1c (%), Inadequately Controlled Diabetes at Baseline” value was −0.06 ± 1.3%. The “decrease in LDL-C as compared to baseline” value (prior to initial administration as baseline) is “about 21%”. For the same compound, under “vs placebo, over the trial, full population”, the “time-averaged reduction in LDL-cholesterol, percent” value amounted to 15.9%.
